Reference: article PMC7503370, “Cellular Signaling and Anti-Apoptotic Effects of Prolactin-Releasing Peptide and Its Analog on SH-SY5Y Cells” (International Journal of Molecular Sciences, 2020)

Assays:
Format in all cases: cell-based, human
[1] = tested on: Tau protein phosphorylation in SH-SY5Y cells; assay: Western blotting of Tau phosphorylation in MG-stressed cells; settings: 0.6 mM MG 16 h vs control cells
Procedure: (§1) Figure 8 PrRP31 and palm^11-PrRP31 attenuate Tau hyperphosphorylation at the epitope Ser396 in SH-SY5Y. Immunoblots with: (a) and their quantifications: (b). SH-SY5Y cells were pretreated with PrRP31 and palm^11-PrRP31 at a concentration of 1 × 10^−5 M for 4 h and then stressed with 0.6 mM MG for 16 h. Activation was expressed as the ratio of the activated protein to the total amount of the protein, both normalized to loading control, GAPDH. Data are presented as the means ± SEM as a percentage of control cells treated with medium alone. Analysis is made vs. MG by a Student’s t-test, * p < 0.5, ** p < 0.01 (each sample replicate in triplicate).
(§2) For the investigation of the molecular mechanism of PrRP31 and its analog in the cells, signaling pathways were studied by Western blotting (WB). The cells were cultured in 6-well plates at a density of 800,000 cells per well. Growth medium was exchanged for serum-free DMEM 16 h before an experiment, and then, the cells were incubated with PrRP31, palm^11-PrRP31, or scrambled peptide at a final concentration of 1 × 10^−5 M or insulin at a concentration of 1 × 10^−7 M at 37 °C for 8 min. The cells were rapidly cooled on ice and lysed in 400 µl of Laemmli sample buffer (62.5 mM Tris-HCl with pH 6.8, 2% SDS, 10% glycerol, 0.01% bromophenol blue, 5% mercaptoethanol, 50 mM NaF, and 1 mM Na3VO4) and stored at −20 °C. Afterward, the cell lysates were analyzed by WB. SDS-electrophoresis and WB were carried out using a Criterion system with a 26-well 4−15% Criterion^TM TGX^TM Precast Midi Protein Gel (Bio-Rad, Hercules, CA, USA) at a constant voltage of 200 V or 100 V, respectively.
(§3) Subsequently, the membranes were incubated overnight with primary antibody (Ab) at 4 °C, according to the manufacturer´s instructions (Table 2). The next day, the membranes were incubated with an HRP-linked secondary antibody for 1 h at room temperature. Chemiluminescence was visualized with a ChemiDoc^TM System (Bio-Rad). Band intensities were normalized using glyceraldehyde 3-phosphate dehydrogenase (GAPDH) as an internal loading control.
(§4) For analysis of the molecular mechanism during MG stress, the growth medium was exchanged for serum-free DMEM 16 h before the experiment. The cells were pretreated with 1 × 10^−5 M PrRP31 or palm^11-PrRP31 for 4 h; then, MG was added to a final concentration of 0.6 mM, and the cells were incubated at 37 °C for 16 h. The controls and compounds were tested in triplicate.

[2] = tested on: p-c-Jun, p-ERK, p-Bad, Bax/Bcl-2 in SH-SY5Y cells; assay: Western blotting of anti-apoptotic signaling in MG-stressed cells; settings: 0.6 mM MG 16 h vs control cells
Procedure: as §1, with “7” for “8”, “affected anti-apoptotic signaling” for “attenuate Tau hyperphosphorylation at the epitope Ser396”, “SH-SY5Y cells. Immunoblots:” for “SH-SY5Y. Immunoblots with:”, “sample” for “sample replicate”, “triplicates).” for “triplicate).”
as §2, §3, §4

[3] = tested on: p-m-Tor, p-GSK-3β, p-ERK, p-CREB in SH-SY5Y cells; assay: Western blotting with selective inhibitors of signaling pathways
Procedure: Immunoblots with PrRP31 and palm^11-PrRP31: (a) and insulin: (b) and their quantifications: (c). SH-SY5Y cells were incubated firstly with selective inhibitors for 2 min and then either with PrRP31 and its palmitoylated analog at a final concentration 1 × 10^−5 M, or with insulin in the final concentration 1 × 10^−7 M at 37 °C for 8 min, or alone in serum-free medium. Activated protein was normalized to loading control, GAPDH. Data are presented as the means ± SEM as a percentage of control cells treated with medium alone. Analysis is made between groups as shown in the graph by a Student’s t-test, * p < 0.5, ** p < 0.01, *** p < 0.001(each sample in triplicates).
(§5) Eight minutes of incubation was performed in a series of experiments with different exposure times (5, 10, 15, 30, and 60 min) to PrRP31 and its palmitoylated analog. Activation of analogs was strongest after 10 min. Then, the cells were treated with inhibitors of signaling pathways for 2 min, and analogs were added for 8 min. The time of exposure was set to 8 min to ensure that the incubation time for PrRP31 and its palmitoylated analog was the same. The controls and compounds were tested in triplicate in three independent experiments. The PI3K/Akt pathway is one of the main signaling pathways of insulin; therefore, insulin was used as a positive control. Scrambled peptide was used as a negative control. Activation is expressed as the ratio of the activated protein to the total amount of the protein. GAPDH was used as a loading control.
For further research, inhibitors of signaling pathways were used. The growth medium was exchanged for serum-free DMEM 16 h before the experiment. On the day of the experiment, cells were incubated for 2 min with rapamycin, SB216736 or U0126 at a final concentration of 1 × 10^−6 M; then, PrRP31, palm^11-PrRP31 or scrambled peptide at a final concentration of 1 × 10^−5 M or insulin at a concentration of 1 × 10^−7 M was added for 8 min. The plates were stored at 37 °C. The controls and compounds were tested in triplicate.

[4] = tested on: PI3K/Akt signaling pathway in SH-SY5Y cells; assay: Western blotting of PI3K/Akt signaling pathway after 8 min incubation; settings: 37 °C
Procedure: Figure 1 Prolactin-releasing peptide 31 (PrRP31) and palm^11-PrRP31 increased phosphoinositide-3 kinase (PI3K/Akt) signaling pathway in SH-SY5Y cells. Immunoblots: (a) and their quantifications: (b). SH-SY5Y cells were incubated either with PrRP31 and its palmitoylated analog and scrambled at a final concentration 1 × 10^-5 M, or with insulin at the final concentration 1 × 10^−7 M at 37 °C for 8 min, or medium alone (control). Activation was expressed as the ratio of the activated protein to the total amount of the protein, both normalized to loading control, glyceraldehyde 3-phosphate dehydrogenase (GAPDH). Data are presented as the means ± SEM as a percentage of control cells analyzed by one-way ANOVA followed by the Dunnett post hoc test, * p < 0.5, ** p < 0.01, **** p < 0.0001 (n = 3, each sample in triplicates).
as §2, §3, §5

[5] = inhibitor 1 × 10^−6 M for 2 min, then peptide for 8 min, under the control level
[6] = PrRP31 and palm^11-PrRP31 1 × 10^−5 M, insulin 1 × 10^−7 M, 37 °C, 8 min

CC(=O)C=O [MG, methylglyoxal, reference compound]
Tau phosphorylation at Ser198/199/202 (Tau 1)/Tau 5 after MG [1]: tended to increase | Tau phosphorylation at Ser396 after MG [1]: increased | level of p-Bad (Ser112)/Bad after MG [2]: increased | level of p-Bad (Ser136)/Bad after MG [2]: increased | level of p-c-Jun (Ser73)/c-Jun after MG [2]: increased

Cn1cc(C2=C(c3ccc(Cl)cc3Cl)C(=O)NC2=O)c2ccccc21 [SB216736]
effect on the level of p-GSK-3β (Ser9) in cells treated with insulin ([3]; inhibitor 1 × 10^−6 M for 2 min, then insulin 1 × 10^−7 M for 8 min): tended to decrease | effect on the palm^11-PrRP31-induced increase of p-GSK-3β (Ser9) ([3]; inhibitor 1 × 10^−6 M for 2 min, then palm^11-PrRP31 1 × 10^−5 M for 8 min): significantly reversed

N#CC(=C(/N)Sc1ccccc1N)/C(C#N)=C(/N)Sc1ccccc1N [U0126]
effect on the increase of p-ERK and p-CREB by PrRP31, palm^11-PrRP31 and insulin [3, 5]: significantly blocked

CO[C@H]1C[C@@H]2CC[C@@H](C)[C@@](O)(O2)C(=O)C(=O)N2CCCC[C@H]2C(=O)O[C@H]([C@H](C)C[C@@H]2CC[C@@H](O)[C@H](OC)C2)CC(=O)[C@H](C)/C=C(\C)[C@@H](O)[C@@H](OC)C(=O)[C@H](C)C[C@H](C)/C=C/C=C/C=C/1C [rapamycin, Rapamycin]
effect on the increase of p-m-Tor (Ser2448) by PrRP31, palm^11-PrRP31 and insulin [3, 5]: inhibited

GHFTHSIRMI K^11 (γ-E (N-palm))TPRNASVYARPCitDWWGICitPES [scrambled-palm^11-PrRP31]
effect on the PI3K/Akt pathway ([4]; negative control, 1 × 10^-5 M): did not significantly affect

insulin: human insulin used as a positive control
p-CREB after incubation with peptide, no inhibitor [3, 6]: increased | p-ERK after incubation with peptide, no inhibitor [3, 6]: increased | p-m-Tor (Ser2448) after application of peptide, no inhibitor ([3]; PrRP31 and palm^11-PrRP31 1 × 10^−5 M, insulin 1 × 10^−7 M, 37 °C, 8 min, normalized to GAPDH, triplicates): significantly increased | p-GSK-3β (Ser9) after incubation with peptide, no inhibitor ([3]; palm^11-PrRP31 1 × 10^−5 M, insulin 1 × 10^−7 M, 37 °C, 8 min, normalized to GAPDH, triplicates): slight increase | activation of proteins of the insulin signaling cascade ([4]; positive control, 1 × 10^−7 M): significantly activated
